Data on eleven molecules can be found in PubChem BioAssay (NCI).

Holding throughout (assay): NCI tumour cell line growth inhibition, 48 h
For assay [1], the system named is CAKI-1 renal.
Assay [2] deals with UO-31 renal.
For assay [3], the system named is A498 renal.
The test system of assay [4] is HCC-2998 colon.
Assay [5] relates to IGROV1 ovarian.
Assay [6] concerns TK-10 renal.
The test system of assay [7] is SN12C renal.
Assay [8] relates to MALME-3M melanoma.
In assay [9] the test system is HCT-116 colon.
Assay [10] relates to OVCAR-4 ovarian.

Several values for one entry are separate records, joined by “and”; a condition that tells them apart may be missing. Equal entries are not always repeated.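 Assay format: 96-well plates, 48-hour exposure. At the GI50, growth is halved. TGI: total growth inhibition.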 Where only a bound is given, the exact number is not on record here.

As to `CC(=O)Nc1ccc(/C=C/C(=O)c2sc(C(N)=S)nc2C)cc1`, the TGI in assay [1], in assay [2], in assay [3], in assay [4], in [5] and in [6] was more than 100 µM throughout. The TGI in assay [7] and in assay [8] was more than 100 µM throughout.

As for `CN=S(=O)(C[C@]1(O)CC2OC1C1OC(C)(C)OC21)c1ccccc1` (stereo partly drawn), the TGI in assay [1], in assay [3], in assay [4], in [5], in assay [6] and in [9] was more than 100 µM in each case. The TGI in assay [10], in assay [7] and in assay [8] was more than 100 µM in each case.

Turning to `CC[C@H](C)C(=O)O[C@H]1CCC=C2C=C[C@H](C)C(CCC3C[C@@H](O)CC(=O)O3)[C@H]21` (stereo partly drawn), the GI50 in assay [1] is 1.76 µM; in assay [3], 0.0183 µM; in assay [4], 33 µM; in assay [6], 18.5 µM; in assay [9], 2.99 µM; in [10] it was 22.7 µM. Also, in assay [7], the GI50 was 3.5 µM. Moreover, the TGI was 4.96 µM in [1]; 2.42 µM in assay [3]; more than 100 µM in assay [4]; more than 100 µM in [6]; 62.1 µM in assay [9]; more than 100 µM in assay [10]. Also, the TGI in [7] is more than 100 µM.

For `COC(=O)C(=O)C(C(=O)C(=O)Nc1cc([N+](=O)[O-])ccc1[N+](=O)[O-])c1nc2ccc(C(=O)c3ccccc3)cc2[nH]c1=O` (stereo not drawn), the TGI was more than 100 µM in assay [1]; 67.5 µM in assay [2]; 63.4 µM in [3]; more than 100 µM in assay [4]; more than 100 µM in assay [5]; more than 100 µM in assay [9]. The TGI in assay [10], in assay [7] and in [8] was more than 100 µM throughout.

With `O=C(C=Nc1ccccc1C(=O)[O-])c1cccs1.O=C(C=Nc1ccccc1C(=O)[O-])c1cccs1.[Cu+2]`, the TGI in [1], in [2], in assay [3], in assay [4], in assay [5] and in [6] was more than 100 µM throughout. Moreover, the TGI in assay [9], in assay [7] and in [8] was more than 100 µM throughout.

Turning to `Cc1ccc(S(=O)(=O)N/N=C(\C(=O)Nc2cccc([N+](=O)[O-])c2)c2nc3ccc([N+](=O)[O-])cc3[nH]c2=O)cc1`, the TGI in [1] was more than 100 µM; in assay [2], more than 100 µM; in assay [3], more than 100 µM; in assay [4] it was 69.9 µM; in [5], more than 100 µM; in [9], more than 100 µM. In addition, the TGI in assay [10], in [7] and in [8] was more than 100 µM in each case.

Turning to `O=C1c2ccccc2C(=O)c2nc(-c3ccccc3)c(-c3ccccc3)nc21`, the TGI in assay [1] was more than 100 µM; in [2], more than 100 µM; in assay [3] it was more than 93.6 µM; in assay [4], more than 100 µM; in assay [6], more than 100 µM; in [9] it was more than 100 µM. The TGI in assay [10] is more than 66.9 µM; in assay [7] it was more than 100 µM; in assay [8], more than 100 µM.

In the case of `CCCCCCCCCCCC(=O)OCC1OC(n2cc(F)c(=O)[nH]c2=O)C(N)C(O)C1O` (stereo not drawn), the TGI in assay [1], in assay [2], in [3], in assay [4], in assay [5] and in [9] was more than 100 µM throughout. The TGI in assay [10], in assay [7] and in [8] was more than 100 µM each time.

Regarding `Cc1ccc2sc3c(NCCCNCCO)nc4ccccc4c3c(=O)c2c1`, the GI50 in [1] is 1.43 µM; in assay [2] it was 1.28 µM; in [3], 1.44 µM; in [4], 1.64 µM; in [5], 1.59 µM; in [9], 1.41 µM. The GI50 in assay [10] was 1.64 µM; in assay [7], 1.6 µM; in assay [8] it was 1.69 µM. The TGI in [1] came to 2.82 µM; in assay [2], 2.58 µM; in assay [3], 3.49 µM; in assay [4], 3.32 µM; in assay [5] it was 3.14 µM; in [9], 2.73 µM. Also, the values for the TGI in [10], in assay [7] and in [8] were 3.12 µM, 3.16 µM and 3.18 µM, respectively.

As for `COC(=O)[C@@H](C)C[C@H](Cc1ccccc1)NC(=O)c1csc([C@@H](C[C@H](C(C)C)N(C)C(=O)[C@@H](NC(=O)[C@H]2CCCCN2C)C(C)C)OC(C)=O)n1`, the GI50 is 0.000932 µM and 0.0025 µM in assay [2]; 0.000176 µM and < 0.0025 µM in assay [3]; 0.000356 µM and 0.0025 µM in assay [4]; 0.000308 µM and 0.0025 µM in [5]; 0.0223 µM and 0.0025 µM in [6]; 0.000567 µM and 0.0025 µM in assay [7]. In addition, the GI50 in assay [8] was 8.67 µM. In addition, the TGI is more than 25 µM in assay [2]; 0.000694 µM and < 0.0025 µM in assay [3]; more than 25 µM in assay [4]; more than 25 µM in assay [5]; more than 25 µM in assay [6]; more than 25 µM in [9]. The TGI in assay [10], in [7] and in [8] was more than 25 µM throughout.

With `C[C@]12CCC(=O)C=C1CC[C@@H]1[C@@H]2CC[C@]2(C)C(=O)/C(=C/c3cccc(OCCN4CCOCC4)c3)C[C@@H]12`, the GI50 in assay [1] was 11.9 µM; in assay [2] it was 12.1 µM; in assay [3], 18.5 µM; in [5], 23.5 µM; in assay [6], 17.7 µM; in [9] it was 3.14 µM. For the same molecule, the GI50 in [10] is 3.01 µM; in assay [7], 16.7 µM; in [8], 14.7 µM. Further, the TGI in [1] was 48.3 µM; in [2], 30 µM; in [3], 36.1 µM; in [5], 95.9 µM; in assay [6], more than 100 µM; in [9] it was 13.4 µM. Further, the TGI in assay [10] was more than 100 µM; in assay [7], 63.6 µM; in assay [8], 36 µM.
